In ChEMBL document CHEMBL5042524, “Discovery of Novel Histone Deacetylase 6 (HDAC6) Inhibitors with Enhanced Antitumor Immunity of Anti-PD-L1 Immunotherapy in Melanoma” (J Med Chem, 2022):
pIC50: −log10 of the molar value. The source made the active and inactive calls. No cut-off for these calls is given here.

Experiments:
Histone deacetylase = assay: Inhibition of HDAC in human HeLa nuclear extracts using fluorometric substrate incubated for 30 mins by fluorescence plate reader analysis; format: cell-based
Histone deacetylase 1 = Histone deacetylase 1 (Homo sapiens, UniProt Q13547); assay: Inhibition of recombinant human HDAC1 expressed in baculovirus expression system using Ac-Leu-Gly-Lys (Ac)-AMC as substrate preincubated for 5 mins followed by substrate addition and measured after 30 mins by fluorescence microtiter plate reader assay
Histone deacetylase 3 = Histone deacetylase 3 (Homo sapiens, UniProt O15379); assay: Inhibition of recombinant human His-tagged HDAC3 expressed in baculovirus insect cells using Ac-Leu-Gly-Lys (Ac)-AMC as substrate preincubated for 5 mins followed by substrate addition and measured after 30 mins by fluorescence microtiter plate reader assay
Histone deacetylase 8 = biological target: T1, Histone deacetylase 8 (Homo sapiens, UniProt Q9BY41); assay: Inhibition of full length recombinant human C-terminal His tagged HDAC8 expressed in baculovirus infected Sf9 insect cells using Ac-Leu-GlyLys (Tfa)-AMC as substrate preincubated for 5 mins followed by substrate addition and measured after 30 mins by fluorescence microtiter plate reader assay
T1 sequence (Q9BY41 whole entry): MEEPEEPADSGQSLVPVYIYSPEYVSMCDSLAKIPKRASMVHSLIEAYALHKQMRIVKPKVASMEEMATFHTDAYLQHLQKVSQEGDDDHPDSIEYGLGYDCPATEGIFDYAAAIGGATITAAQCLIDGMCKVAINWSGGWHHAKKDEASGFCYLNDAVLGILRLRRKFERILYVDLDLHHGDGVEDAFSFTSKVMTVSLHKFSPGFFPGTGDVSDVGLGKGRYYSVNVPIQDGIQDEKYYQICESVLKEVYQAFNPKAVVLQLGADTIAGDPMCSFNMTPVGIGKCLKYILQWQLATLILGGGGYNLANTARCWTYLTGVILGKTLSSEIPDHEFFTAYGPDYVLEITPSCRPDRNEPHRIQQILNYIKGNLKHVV

HCT-116 = assay: cells; format: functional, cell-based; conditions: Homo sapiens, HCT-116, 48 h
Description: Antiproliferative activity against human HCT-116 cells assessed as inhibition of cell proliferation measured after 48 hrs by MTT assay

A549 = assay: cells; format: functional, cell-based; conditions: Homo sapiens, A549, 48 h
Description: Antiproliferative activity against human A549 cells assessed as inhibition of cell proliferation measured after 48 hrs by MTT assay

MCF7 = assay: cells; format: functional, cell-based; conditions: Homo sapiens, MCF7, 48 h
Description: Antiproliferative activity against human MCF7 cells assessed as inhibition of cell proliferation measured after 48 hrs by MTT assay

[1] = Cytotoxicity against human Jurkat cells assessed as reduction in cell viability incubated for 72 hrs by CCK-8 assay
B16-F10 [2] = assay: cells; format: functional, cell-based; conditions: Mus musculus, B16-F10, 48 h
Description: Antiproliferative activity against mouse B16-F10 cells assessed as inhibition of cell proliferation measured after 48 hrs by MTT assay

[3] = Antiproliferative activity against human YCC-11 cells assessed as cell growth inhibition; format: functional, cell-based
[4] = Antiproliferative activity against human YCC3/7 cells assessed as cell growth inhibition; format: functional, cell-based
B16-F10 [5] = assay: Induction of apoptosis in mouse B16-F10 cells assessed as increase in apoptotic cells at 0.1 uM incubated for 48 hrs by Annexin V-FITC/PI staining based flow cytometry analysis relative to control; format: functional
B16-F10 [6] = assay: Induction of apoptosis in mouse B16-F10 cells assessed as increase in apoptotic cells at 0.5 uM incubated for 48 hrs by Annexin V-FITC/PI staining based flow cytometry analysis relative to control; format: functional
B16-F10 [7] = assay: Induction of apoptosis in mouse B16-F10 cells assessed as increase in apoptotic cells at 1 uM incubated for 48 hrs by Annexin V-FITC/PI staining based flow cytometry analysis relative to control; format: functional
Jurkat [8] = assay: Induction of apoptosis in human Jurkat T cells assessed as increase in Bax protein expression at 0.2 to 2 uM measured after 6 hrs by Western blot analysis; format: functional, cell-based; conditions: dose 0.2-2 µM
Jurkat [9] = assay: Induction of apoptosis in human Jurkat T cells assessed as upregulation of acetylated Ku70 expression measured after 6 hrs by Western blot analysis; format: functional, cell-based; conditions: dose 0.2-2 µM
Jurkat [10] = assay: Induction of apoptosis in human Jurkat T cells assessed as downregulation of Bcl-2 expression at 0.2 to 2 uM incubated for 6 hrs by Western blot analysis; format: functional, cell-based; conditions: dose 0.2-2 µM
Jurkat [11] = assay: Upregulation of acetylated alpha-tubulin expression in human Jurkat T cells incubated for 6 hrs by Western blot analysis; format: functional, cell-based; conditions: dose 0.1-2 µM
B16-F10 [12] = assay: Upregulation of acetylated alpha-tubulin expression in mouse B16-F10 cells incubated for 6 hrs by Western blot analysis; format: functional, cell-based; conditions: dose 0.1-2 µM
B16-F10 [13] = assay: Upregulation of alpha-tubulin expression in mouse B16-F10 cells at 0.1 to 2 uM incubated for 6 hrs by Western blot analysis; format: functional, cell-based; conditions: dose 0.1-2 µM
Jurkat [14] = assay: Upregulation of alpha-tubulin expression in human Jurkat T cells at 0.1 to 2 uM incubated for 6 hrs by Western blot analysis; format: functional, cell-based; conditions: dose 0.1-2 µM
B16-F10 [15] = assay: Effect on acetyl-SMC3 expression level in mouse B16-F10 cells at 1 to 8 uM incubated for 6 hrs by Western blot analysis; format: functional, cell-based; conditions: dose 1-8 µM
B16-F10 [16] = assay: Effect on acetyl-SMC3 expression level in mouse B16-F10 cells at 1 to 4 uM incubated for 6 hrs by Western blot analysis; format: functional, cell-based; conditions: dose 1-4 µM
Jurkat [17] = assay: Effect on acetyl-SMC3 expression level in human Jurkat T cells at 0.1 to 0.8 uM incubated for 6 hrs by Western blot analysis; format: functional, cell-based; conditions: dose 0.1-0.8 µM
Jurkat [18] = assay: Effect on acetyl-SMC3 expression level in human Jurkat T cells at 0.1 to 0.4 uM incubated for 6 hrs by Western blot analysis; format: functional, cell-based; conditions: dose 0.1-0.4 µM
Jurkat [19] = assay: Effect on acetyl-H3 expression level in human Jurkat T cells at 0.1 to 0.8 uM incubated for 6 hrs by Western blot analysis; format: functional, cell-based; conditions: dose 0.1-0.8 µM
Jurkat [20] = assay: Effect on acetyl-H3 expression level in human Jurkat T cells at 0.1 to 0.4 uM incubated for 6 hrs by Western blot analysis; format: functional, cell-based; conditions: dose 0.1-0.4 µM
B16-F10 [21] = assay: Effect on acetyl-H3 expression level in mouse B16-F10 cells at 1 to 8 uM incubated for 6 hrs by Western blot analysis; format: functional, cell-based; conditions: dose 1-8 µM
B16-F10 [22] = assay: Effect on acetyl-H3 expression level in mouse B16-F10 cells at 1 to 4 uM incubated for 6 hrs by Western blot analysis; format: functional, cell-based; conditions: dose 1-4 µM

Sequence of Histone deacetylase 3 (O15379 whole entry): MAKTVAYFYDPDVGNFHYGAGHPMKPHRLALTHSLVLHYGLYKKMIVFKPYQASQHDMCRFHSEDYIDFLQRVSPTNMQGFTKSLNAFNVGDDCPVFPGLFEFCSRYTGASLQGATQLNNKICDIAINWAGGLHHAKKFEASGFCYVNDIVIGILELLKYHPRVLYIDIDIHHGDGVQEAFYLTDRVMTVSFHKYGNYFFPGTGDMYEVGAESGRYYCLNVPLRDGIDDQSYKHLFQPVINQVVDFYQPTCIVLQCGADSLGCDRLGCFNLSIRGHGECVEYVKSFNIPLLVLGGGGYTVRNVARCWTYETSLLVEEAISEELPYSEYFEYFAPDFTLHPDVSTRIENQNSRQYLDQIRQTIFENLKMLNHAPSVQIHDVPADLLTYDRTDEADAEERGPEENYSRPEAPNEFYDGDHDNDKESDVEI
Sequence of Histone deacetylase 1 (Q13547 whole entry): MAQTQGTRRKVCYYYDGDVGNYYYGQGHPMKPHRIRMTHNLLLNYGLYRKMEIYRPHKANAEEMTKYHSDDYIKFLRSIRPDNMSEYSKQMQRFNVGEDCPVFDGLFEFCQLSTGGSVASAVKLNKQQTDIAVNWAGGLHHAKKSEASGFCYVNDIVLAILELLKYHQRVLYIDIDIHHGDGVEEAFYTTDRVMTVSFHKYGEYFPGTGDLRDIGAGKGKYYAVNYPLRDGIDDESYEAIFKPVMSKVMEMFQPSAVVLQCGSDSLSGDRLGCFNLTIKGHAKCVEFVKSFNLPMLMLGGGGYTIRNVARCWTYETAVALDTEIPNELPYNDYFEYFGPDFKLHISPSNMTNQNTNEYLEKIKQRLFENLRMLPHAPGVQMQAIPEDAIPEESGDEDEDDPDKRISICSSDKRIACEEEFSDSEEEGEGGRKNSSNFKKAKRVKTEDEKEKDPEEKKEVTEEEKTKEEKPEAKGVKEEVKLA

Structure (SMILES) | IC50 (Histone deacetylase) [nM] | pIC50 (Histone deacetylase 1) | pIC50 (Histone deacetylase 3) | pIC50 (Histone deacetylase 8) | pIC50 (HCT-116) | pIC50 (A549) | pIC50 (MCF7) | IC50 at 72 h [1] [nM] | pIC50 (B16-F10 [2]) | pIC50 [3] | pIC50 [4] | Activity (B16-F10 [5]) [%] | Activity (B16-F10 [6]) [%] | Activity (B16-F10 [7]) [%] | Activity (Jurkat [8]) | Activity (Jurkat [9]) | Activity (Jurkat [10]) | Activity (Jurkat [11]) | Activity (B16-F10 [12]) | Activity (B16-F10 [13]) | further results
COc1ccc(-c2ncc(C(=O)NCCCCCCC(=O)NO)[nH]2)c(OC)c1 | 80 | 5.33 | 5.15 | 4.84 | 5.93 | 5.65 | 5.57 | 230 | 5.28 | 5.89 | 5.82 | 16.58 | 38.71 | 57.73 | Active | Dose-Dependent Effect | Active | Dose-Dependent Effect | Dose-Dependent Effect | inactive | Activity (Jurkat [14]): inactive; Activity (B16-F10 [15]): Active; Activity (B16-F10 [16]): Active; Activity (Jurkat [17]): Active; Activity (Jurkat [18]): Active; Activity (Jurkat [19]): Active; Activity (Jurkat [20]): Active; Activity (B16-F10 [21]): Active; Activity (B16-F10 [22]): Active
COc1ccc(-c2ncc(C(=O)NCCCCCCC(=O)NO)s2)c(OC)c1 | 40 | 5.50 | 4.98 | 5.04 | 6.29 | 5.72 | 6.04 | 160 | 5.64 | 6.04 | 5.97 | 57.09 | 78.98 | 87.91 | Active | Dose-Dependent Effect | Active | Dose-Dependent Effect | Dose-Dependent Effect | inactive | Activity (Jurkat [14]): inactive; Activity (B16-F10 [15]): Active; Activity (B16-F10 [16]): Active; Activity (Jurkat [17]): Active; Activity (Jurkat [18]): Active; Activity (Jurkat [19]): Active; Activity (Jurkat [20]): Active; Activity (B16-F10 [21]): Active; Activity (B16-F10 [22]): Active
